Experimental data from patent US6548544B1, “Method of treatment of priapism without raising systemic blood pressure” (The National University of Singapore, priority 1999, dated 2003).

What was measured:
[1] = test system: Pharmacologically Induced Prolonged Erection (Pipe); experiment: Effect on papaverine- and phenoxybenzamine-induced prolonged erection (PIPE), penile length, baboons; format: in vivo, baboon; conditions: for increase in penile length: intracavernous papaverine (40 mg) or phenoxybenzamine (3 mg), within 10 min after administration
Description: Six male baboons weighing between 8 kg and 12 kg were used for the experiment. The animals were sedated with ketamine and anaesthetised with intravenous pentobarbitone injected through an indwelling venous catheter. Drugs were injected into the right corpora cavornosa at the mid-third of the shaft using a 29G needle and 1 ml syringe. Blood pressure was monitored through a cannulated femoral artery connected to the transducer. A measuring tape was used to measure penile length visually from a marked point at the base of the penis to the tip of urethral orifice. Changes in penile length were recorded for a period of 100 min after injection.
Intracavernous injection of papaverine (40 mg) or phenoxybenzamine (3 mg) which produced maximal penile length within 20 and 40 min were repeated one week later and prostaglandin A2 was given at the peak time of the turgidity.
In baboons, intracavernous injection of papaverine (40 mg) or phenoxybenzamine (3 mg) produced a 130% increase in penile length within […] after administration (Table 1). This increase in penile length lasted for more than 100 min. This was repeated one week later and when prostaglandin A2 was injected intracavernosally at the maximum rigidity 20 min after the drug administration, the latter produced a marked reduction in penile length and within 40 min of injection, the penile size reduced to the original state of rugosity (Table 1). The fall in systemic blood pressure produced by prostaglandin A2 ranged from 8 to 16 mmHg. Each value reported in Table 1 represents the mean of six experiments.

cavernosum = experiment: Other prostaglandins tested using the above protocol (contraction of the cavernosum); format: in vivo; conditions: testing using the above protocol "will demonstrate"

## COc1ccc(Cc2nccc3cc(OC)c(OC)cc23)cc1OC [Papaverine, papaverine]
[1]
  increase in penile length: 130%
[1]; papaverine 40 mg intracavernous alone, 1 min after injection
  Mean Change in Penile Length (% of Control): 30%
[1]; papaverine 40 mg intracavernous alone, 2 min after injection
  Mean Change in Penile Length (% of Control): 40%
[1]; papaverine 40 mg intracavernous alone, 5 min after injection
  Mean Change in Penile Length (% of Control): 52%
[1]; papaverine 40 mg intracavernous alone, 10 min after injection
  Mean Change in Penile Length (% of Control): 130%
[1]; papaverine 40 mg intracavernous alone, 20 min after injection
  Mean Change in Penile Length (% of Control): 130%
[1]; papaverine 40 mg intracavernous alone, 40 min after injection
  Mean Change in Penile Length (% of Control): 130%
[1]; papaverine 40 mg intracavernous alone, 60 min after injection
  Mean Change in Penile Length (% of Control): 130%
[1]; papaverine 40 mg intracavernous alone, 80 min after injection
  Mean Change in Penile Length (% of Control): 130%
[1]; papaverine 40 mg intracavernous alone, 100 min after injection
  Mean Change in Penile Length (% of Control): 130%

## CC(COc1ccccc1)N(CCCl)Cc1ccccc1 (centres unmarked) [Phenoxybenzamine, phenoxybenzamine]
[1]
  increase in penile length: 130%
[1]; phenoxybenzamine 3 mg intracavernous alone, 1 min after injection
  Mean Change in Penile Length (% of Control): 10%
[1]; phenoxybenzamine 3 mg intracavernous alone, 2 min after injection
  Mean Change in Penile Length (% of Control): 15%
[1]; phenoxybenzamine 3 mg intracavernous alone, 5 min after injection
  Mean Change in Penile Length (% of Control): 15%
[1]; phenoxybenzamine 3 mg intracavernous alone, 10 min after injection
  Mean Change in Penile Length (% of Control): 48%
[1]; phenoxybenzamine 3 mg intracavernous alone, 20 min after injection
  Mean Change in Penile Length (% of Control): 80%
[1]; phenoxybenzamine 3 mg intracavernous alone, 40 min after injection
  Mean Change in Penile Length (% of Control): 120%
[1]; phenoxybenzamine 3 mg intracavernous alone, 60 min after injection
  Mean Change in Penile Length (% of Control): 120%
[1]; phenoxybenzamine 3 mg intracavernous alone, 80 min after injection
  Mean Change in Penile Length (% of Control): 120%
[1]; phenoxybenzamine 3 mg intracavernous alone, 100 min after injection
  Mean Change in Penile Length (% of Control): 120%

## CCCCC[C@H](O)/C=C/C1=C(C/C=C\CCCC(=O)O)C(=O)CC1 [prostaglandin B2]
cavernosum
  contraction of the cavernosum: effective in inducing, promoting, or otherwise facilitating contraction of the cavernosum but are not as active as prostaglandin A2

## CCCCC[C@H](O)/C=C/C1=C(CCCCCCC(=O)O)C(=O)CC1 [prostaglandin B1]
cavernosum
  contraction of the cavernosum: effective in inducing, promoting, or otherwise facilitating contraction of the cavernosum but are not as active as prostaglandin A2

## CCCCC[C@H](O)/C=C/[C@H]1C=CC(=O)[C@@H]1CCCCCCC(=O)O [prostaglandin A1]
cavernosum
  contraction of the cavernosum: effective in inducing, promoting, or otherwise facilitating contraction of the cavernosum but are not as active as prostaglandin A2
